Patent US20240366633A1, “METHODS FOR TREATMENT OF OPIOID USE DISORDER WITH CANNABINOIDS” (ANANDA SCIENTIFIC, INC, priority 2021, published 2024)

Legend:
[1] = Chemical characteristics of Composition A′, concentrated and diluted forms; type: physicochemical
Description: Several tests were conducted to determine the chemical characteristics of composition Composition A′, both in concentrated and diluted forms. […] All liquid nanodomain droplets range in size from 5 to 20 nm. The pH of both the concentrate and diluted formulations is between 6.0 and 7.5.

[2] = rat, 120 mg/kg dose; cited from earlier work
CB2 receptors = CB2 receptors (Homo sapiens, UniProt P34972); conditions: cited from earlier work
Sequence of CB2 receptors (P34972 whole entry): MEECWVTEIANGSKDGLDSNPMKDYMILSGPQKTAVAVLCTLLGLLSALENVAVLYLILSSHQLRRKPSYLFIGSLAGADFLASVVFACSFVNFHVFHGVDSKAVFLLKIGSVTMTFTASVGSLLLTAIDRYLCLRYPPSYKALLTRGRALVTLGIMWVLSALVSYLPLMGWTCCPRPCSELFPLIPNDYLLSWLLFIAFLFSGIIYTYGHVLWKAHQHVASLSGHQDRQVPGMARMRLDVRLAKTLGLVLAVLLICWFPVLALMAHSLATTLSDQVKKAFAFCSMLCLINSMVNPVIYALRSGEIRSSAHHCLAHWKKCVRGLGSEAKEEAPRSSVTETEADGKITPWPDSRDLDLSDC

[3] = healthy volunteers and subjects with various medical conditions, 10 mg to 6000 mg, single and multiple doses; cited from earlier work

Structure (SMILES): C=C(C)[C@@H]1CCC(C)=C[C@H]1c1c(O)cc(CCCCC)cc1O [CBD, 2-(1R,6R)-3-methyl-6-prop-1-en-2-ylcyclohex-2-en-1-yl-5-pentylbenzene-1,3-diol]
- Log P [1]: about 6
- Association of CBD with formulation phases during storage ([1]; both concentrated and diluted forms): remained associated with the surfactant and lipid phases
- T1/2 [2]: 4 to 5 h
- Affinity for CB2 receptors (CB2 receptors): low affinity
- Safety [3]: safe
